Laboratory results: patent US20250346606A1, “CAMPTOTHECIN COMPOUND, PREPARATION METHOD THEREFOR, AND APPLICATION THEREOF” (SICHUAN KELUN-BIOTECH BIOPHARMACEUTICAL CO., LTD., priority 2021, published 2025)
Where two headings read alike, the source gives them in different places.

Assays:
[1] = system: NCI-H358 cells; assay: Inhibitory effect of compounds on NCI-H358 cell proliferation; assay type: cell-based, Human
Method: (1) Cell plating: First, tumor cells NCI-H358 were cultured in corresponding medium, then digested with trypsin, centrifuged, resuspended, and counted, and the cells were adjusted to an appropriate concentration for plating.
(§1) Co-incubation of the compound of the present disclosure and tumor cells: after the cells adhered to the wall, the medium was removed, and the diluted bioactive molecule (the compound of the present disclosure) was added to the wells of the above plate, and incubated for 72 h.
(§2) In vitro cell viability detection: After the incubation, 50 μL of Cell Counting-Lite™ 2.0 reagent (Vazyme/Novazyme) was added to each well, shaken and mixed well in the dark, reacted for 10 minutes, and then the detection was carried out with a microplate reader (manufacturer: BMG, Model: PHERAStar-FS) for reading. The background RLU was obtained by using cell-free medium (with Cell Counting-Lite™), and the vehicle RLU was obtained by using cell-containing medium (with Cell Counting-Lite™). Cell inhibition rate=1−(sample RLU−background RLU)/(solvent RLU−background RLU)×100%. According to the four-parameter model fitting curve, the half maximal inhibitory concentration (IC50) of the compound was calculated, and the detection results were shown in Table 10.

[2] = system: NCI-N87 cells; assay: Inhibitory effect of compounds on NCI-N87 cell proliferation; assay type: cell-based, Human
Method: (1) Cell plating: First, tumor cells NCI-N87 were cultured in corresponding medium, then digested with trypsin, centrifuged, resuspended, and counted, and the cells were adjusted to an appropriate concentration for plating.
as §1
as §2, with “12.” for “10.”

[3] = system: Jeko-1 cells; assay: Inhibitory effect of compounds on Jeko-1 cell proliferation; assay type: cell-based, Human; conditions: read-out: IC50, inhibitory activity on Jeko-1 cell proliferation
Method: (1) Cell plating: First, tumor cells Jeko-1 were cultured in corresponding medium, then digested with trypsin, centrifuged, resuspended, and counted, and the cells were adjusted to an appropriate concentration for plating.
as §1
as §2, with “20.” for “10.”

[4] = system: HCC1806 cells; assay: Inhibitory effect of compounds on HCC1806 cell proliferation; assay type: cell-based, Human
Method: (1) Cell plating: First, tumor cells HCC1806 were cultured in corresponding medium, then digested with trypsin, centrifuged, resuspended, and counted, and the cells were adjusted to an appropriate concentration for plating.
as §1
as §2, with “6.” for “10.”

[5] = system: MDA-MB-453 cells; assay: Inhibitory effect of compounds on MDA-MB-453 cell proliferation; assay type: cell-based; conditions: MDA-MB-453 human breast cancer cells, 72 h incubation, Cell Counting-Lite 2.0
Method: (1) Cell plating: First, tumor cells MDA-MB-453 were cultured in corresponding medium, then digested with trypsin, centrifuged, resuspended, and counted, and the cells were adjusted to an appropriate concentration for plating.
as §1
as §2, with “22.” for “10.”

[6] = system: HT29 cells; assay: Inhibitory effect of compounds on HT29 cell proliferation; assay type: cell-based, Human; conditions: read-out: IC50, inhibitory activity on HT29 cell proliferation
Method: (1) Cell plating: First, tumor cells HT29 were cultured in corresponding medium, then digested with trypsin, centrifuged, resuspended, and counted, and the cells were adjusted to an appropriate concentration for plating.
as §1
as §2, with “2.” for “10.”

[7] = system: SKOV-3 cells; assay: Inhibitory effect of compounds on SKOV-3 cell proliferation; assay type: cell-based, Human; conditions: Homo sapiens, SK-OV-3, 72 h, read-out: IC50, inhibitory activity on SKOV-3 cell proliferation
Method: (1) Cell plating: First, tumor cells SKOV-3 were cultured in corresponding medium, then digested with trypsin, centrifuged, resuspended, and counted, and the cells were adjusted to an appropriate concentration for plating.
as §1
as §2, with “8.” for “10.”

[8] = NCI-H358 human non-small cell lung cancer cells, 72 h incubation, Cell Counting-Lite 2.0, read-out: IC50, inhibitory activity on NCI-H358 cell proliferation
[9] = NCI-N87 human gastric cancer cells, 72 h incubation, Cell Counting-Lite 2.0, read-out: IC50, inhibitory activity on NCI-N87 cell proliferation
[10] = Jeko-1 human mantle cell lymphoma cells, 72 h incubation, Cell Counting-Lite 2.0
[11] = read-out: IC50, inhibitory activity on NCI-H358 cell proliferation, NCI-H358 human non-small cell lung cancer cells, 72 h incubation, Cell Counting-Lite 2.0
[12] = read-out: IC50, inhibitory activity on HCC1806 cell proliferation, HCC1806 human breast squamous carcinoma cells, 72 h incubation, Cell Counting-Lite 2.0
[13] = read-out: IC50, inhibitory activity on NCI-N87 cell proliferation, NCI-N87 human gastric cancer cells, 72 h incubation, Cell Counting-Lite 2.0
[14] = Homo sapiens, NCI-H358, 72 h, read-out: IC50, inhibitory activity on NCI-H358 cell proliferation, NCI-H358 human non-small cell lung cancer cells, 72 h incubation, Cell Counting-Lite 2.0
[15] = HCC1806 human breast squamous carcinoma cells, 72 h incubation, Cell Counting-Lite 2.0, read-out: IC50, inhibitory activity on HCC1806 cell proliferation
[16] = Homo sapiens, NCI-N87, 72 h, read-out: IC50, inhibitory activity on NCI-N87 cell proliferation, NCI-N87 human gastric cancer cells, 72 h incubation, Cell Counting-Lite 2.0
[17] = Homo sapiens, HCC1806, 72 h, read-out: IC50, inhibitory activity on HCC1806 cell proliferation, HCC1806 human breast squamous carcinoma cells, 72 h incubation, Cell Counting-Lite 2.0

C=C[C@H](O)C(=O)N[C@H]1CCc2c(C)c(F)cc3nc4c(c1c23)Cn1c-4cc2c(c1=O)COC(=O)[C@]2(O)CC [Example 2 (1-7-A)]
IC50 [1, 8]: 11.4 nM | IC50 [2, 9]: 2.7 nM | IC50 [3, 10]: 0.15 nM

CC[C@@]1(O)C(=O)OCc2c1cc1n(c2=O)Cc2c-1nc1cc(F)c(Cl)c3c1c2C(NC(=O)C(O)C1CC1)CC3 (single isomer, unassigned) [Example 16 (3-12-C)]
IC50 [1, 11]: 28.3 nM | IC50 [4, 12]: 1.91 nM | IC50 [2, 13]: 3.99 nM | IC50 [5]: 5.52 nM

CC[C@@]1(O)C(=O)OCc2c1cc1n(c2=O)Cc2c-1nc1cc3c(cc1c2CCNC1CC1)OCO3 [Example 21 (4-14), (S)-14-(2-(Cyclopropylamino)ethyl)-7-ethyl-7-hydroxy-7H-[1,3]dioxolano[4,5-g]pyrano[3′,4′:6,7]indolizino[1,2-b]quinolin-8,11 (10H,13H)-dione]
IC50 ([6]; Homo sapiens, HT-29, 72 h): 0.56 nM | IC50 [7]: 2.16 nM | IC50 [1, 14]: 12 nM | IC50 ([3]; Homo sapiens, JeKo-1, 72 h): 0.34 nM

CC[C@@]1(O)C(=O)OCc2c1cc1n(c2=O)Cc2c-1nc1cc(F)c(Cl)c3c1c2[C@@H](NC(=O)C1(O)CC1)CC3 [Example 18 (3-17-A)]
IC50 [1, 8]: 13.3 nM | IC50 [4, 15]: 1.7 nM | IC50 [2, 9]: 3.01 nM | IC50 [5]: 3.32 nM

CC[C@@]1(O)C(=O)OCc2c1cc1n(c2=O)Cc2c-1nc1cc(F)c(Cl)c3c1c2[C@H](NC(=O)C1(O)CC1)CC3 [Example 18 (3-17-B)]
IC50 [1, 8]: 37.3 nM | IC50 [4, 15]: 2.26 nM | IC50 [2, 9]: 4.19 nM | IC50 [5]: 6.16 nM

C=C[C@@H](O)C(=O)N[C@H]1CCc2c(C)c(F)cc3nc4c(c1c23)Cn1c-4cc2c(c1=O)COC(=O)[C@]2(O)CC [Example 2 (1-7-B)]
IC50 [1, 8]: 51.5 nM | IC50 [2, 9]: 5.48 nM | IC50 [3, 10]: 0.66 nM

CC[C@@]1(O)C(=O)OCc2c1cc1n(c2=O)Cc2c-1nc1cc(F)c(Cl)c3c1c2[C@H](NC(=O)CO)CC3 [Example 9 (3-4-B), N-((1R,9S)-4-Chloro-9-ethyl-5-fluoro-9-hydroxy-10,13-dioxo-2,3,9,10,13,15-hexahydro-1H, 12H-benzo[de]pyrano[3′,4:6,7]indolizino[1,2-b]quinolin-1-yl)-2-hydroxyacetamide]
IC50 ([6]; HT29 human colon cancer cells, 72 h incubation, Cell Counting-Lite 2.0): 4.98 nM | IC50 [2, 9]: 6.51 nM | IC50 [3, 10]: 0.15 nM

CC[C@@]1(O)C(=O)OCc2c1cc1n(c2=O)Cc2c-1nc1cc(F)c(Cl)c3c1c2C(NC(=O)C(O)C1CC1)CC3 (single isomer, unassigned) [Example 16 (3-12-D)]
IC50 [1, 11]: 20.8 nM | IC50 [4, 12]: 1.53 nM | IC50 [2, 13]: 3.03 nM | IC50 [5]: 3.98 nM

CC[C@@]1(O)C(=O)OCc2c1cc1n(c2=O)Cc2c-1nc1cc(F)c(C)c3c1c2[C@@H](CN)CC3 (single isomer, unassigned) [Example 13 (5-7-A)]
IC50 ([6]; Homo sapiens, HT-29, 72 h): 3.13 nM | IC50 [2, 16]: 6.03 nM | IC50 ([3]; Homo sapiens, JeKo-1, 72 h): 0.16 nM

CC[C@@]1(O)C(=O)OCc2c1cc1n(c2=O)Cc2c-1nc1cc(F)c(Cl)c3c1c2[C@@H](NC[C@@H](C)O)CC3 (single isomer, unassigned) [Example 25 (3-26-A)]
IC50 [1, 14]: 31.6 nM | IC50 [4, 17]: 1.27 nM | IC50 [2, 16]: 1.23 nM | IC50 ([5]; Homo sapiens, MDA-MB-453, 72 h): 3.95 nM

CC[C@@]1(O)C(=O)OCc2c1cc1n(c2=O)Cc2c-1nc1cc(F)c(C3CC3)c3c1c2[C@H](NC(=O)CO)CC3 [Example 19 (5-22-B), N-((1R,9S)-4-cyclopropyl-9-ethyl-5-fluoro-9-hydroxy-10,13-dioxo-1,2,3,9,10,12,13,15-tetrahydrobenzo[de]pyrano[3′,4′:6,7]indolizino[1,2-b]quinolin-1-yl)-2-hydroxyacetamide]
IC50 [1, 8]: 61.4 nM | IC50 [4, 15]: 3.71 nM | IC50 [2, 9]: 5.51 nM | IC50 [5]: 5.67 nM

CC[C@@]1(O)C(=O)OCc2c1cc1n(c2=O)Cc2c-1nc1cc(F)c(Cl)c3c1c2[C@H](NC[C@H](C)O)CC3 (single isomer, unassigned) [Example 17 (3-7-B)]
IC50 [1, 14]: 22.2 nM | IC50 [4, 17]: 1.94 nM | IC50 [2, 16]: 4.54 nM | IC50 ([5]; Homo sapiens, MDA-MB-453, 72 h): 4.87 nM
